Calls of active or inactive are those of the source. The rule behind the calls is not given here.
What was measured:
U2OS [1] = experiment: Agonist activity at NPSR1B in human U2OS cells at 20 uM by PathHunter beta-arrestin assay relative to control; type: cell-based
[2] = biological target: T1, C-C chemokine receptor type 8 (Homo sapiens, UniProt P51685); experiment: Antagonist activity at human CCR8 expressed in CHO-K1 cells at 20 uM by PathHunter beta-arrestin assay relative to control; type: cell-based; details: filed as antagonist
T1 sequence (P51685 whole entry): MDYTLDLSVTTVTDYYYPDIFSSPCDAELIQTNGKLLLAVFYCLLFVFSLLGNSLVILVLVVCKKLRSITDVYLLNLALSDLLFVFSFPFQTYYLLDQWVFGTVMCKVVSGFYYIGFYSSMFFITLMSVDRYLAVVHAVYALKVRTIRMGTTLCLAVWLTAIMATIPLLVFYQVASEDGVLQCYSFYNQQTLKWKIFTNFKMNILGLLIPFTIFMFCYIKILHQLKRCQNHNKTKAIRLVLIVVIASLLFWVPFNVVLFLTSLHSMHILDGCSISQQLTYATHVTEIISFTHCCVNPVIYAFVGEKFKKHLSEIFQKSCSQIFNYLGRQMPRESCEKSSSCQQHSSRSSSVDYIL

[3] = biological target: T2, Follicle-stimulating hormone receptor (Homo sapiens) (UniProt P23945); experiment: Antagonist activity at human FSHR expressed in CHO-K1 cells at 20 uM by PathHunter beta-arrestin assay relative to control; type: cell-based; details: filed as antagonist
T2 sequence (whole entry): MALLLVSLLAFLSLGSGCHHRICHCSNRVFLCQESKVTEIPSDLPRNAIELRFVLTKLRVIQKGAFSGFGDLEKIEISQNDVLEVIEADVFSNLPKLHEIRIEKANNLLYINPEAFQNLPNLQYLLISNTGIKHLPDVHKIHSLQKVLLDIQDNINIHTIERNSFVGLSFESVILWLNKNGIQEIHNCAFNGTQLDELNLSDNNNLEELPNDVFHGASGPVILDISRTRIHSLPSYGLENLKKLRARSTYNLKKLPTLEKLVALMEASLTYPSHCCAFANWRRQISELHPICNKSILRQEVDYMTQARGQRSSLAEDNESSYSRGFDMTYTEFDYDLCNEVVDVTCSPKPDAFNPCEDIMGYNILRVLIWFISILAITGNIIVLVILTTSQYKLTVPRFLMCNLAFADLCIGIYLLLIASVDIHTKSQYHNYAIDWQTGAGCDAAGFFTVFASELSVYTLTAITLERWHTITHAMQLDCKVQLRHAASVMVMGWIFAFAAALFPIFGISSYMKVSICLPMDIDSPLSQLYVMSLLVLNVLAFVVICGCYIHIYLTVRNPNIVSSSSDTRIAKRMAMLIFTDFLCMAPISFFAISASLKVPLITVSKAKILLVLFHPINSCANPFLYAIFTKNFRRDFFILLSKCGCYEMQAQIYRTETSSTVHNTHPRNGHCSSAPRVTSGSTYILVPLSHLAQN

[4] = biological target: T3, CX3C chemokine receptor 1 (Homo sapiens) (UniProt P49238); experiment: Agonist activity at human CX3CR1 expressed in CHO-K1 cells at 20 uM by PathHunter beta-arrestin assay relative to control; type: cell-based
T3 sequence (whole entry): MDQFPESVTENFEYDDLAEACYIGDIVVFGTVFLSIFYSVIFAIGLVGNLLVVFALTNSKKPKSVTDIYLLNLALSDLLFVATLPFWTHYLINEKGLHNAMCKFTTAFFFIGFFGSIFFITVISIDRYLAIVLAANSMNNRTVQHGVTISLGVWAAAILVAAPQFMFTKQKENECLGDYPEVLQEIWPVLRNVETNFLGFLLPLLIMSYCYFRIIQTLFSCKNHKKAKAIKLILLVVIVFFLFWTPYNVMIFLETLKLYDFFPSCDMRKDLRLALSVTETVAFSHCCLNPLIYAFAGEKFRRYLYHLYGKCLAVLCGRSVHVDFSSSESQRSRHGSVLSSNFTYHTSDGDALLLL

[5] = biological target: T2, Follicle-stimulating hormone receptor (Homo sapiens); experiment: Agonist activity at human FSHR expressed in CHO-K1 cells at 20 uM by PathHunter beta-arrestin assay relative to control; type: cell-based
[6] = biological target: T4, Oxytocin receptor (Homo sapiens) (UniProt P30559); experiment: Antagonist activity at human OXTR expressed in CHO-K1 cells at 20 uM by PathHunter beta-arrestin assay relative to control; type: cell-based
T4 sequence (whole entry): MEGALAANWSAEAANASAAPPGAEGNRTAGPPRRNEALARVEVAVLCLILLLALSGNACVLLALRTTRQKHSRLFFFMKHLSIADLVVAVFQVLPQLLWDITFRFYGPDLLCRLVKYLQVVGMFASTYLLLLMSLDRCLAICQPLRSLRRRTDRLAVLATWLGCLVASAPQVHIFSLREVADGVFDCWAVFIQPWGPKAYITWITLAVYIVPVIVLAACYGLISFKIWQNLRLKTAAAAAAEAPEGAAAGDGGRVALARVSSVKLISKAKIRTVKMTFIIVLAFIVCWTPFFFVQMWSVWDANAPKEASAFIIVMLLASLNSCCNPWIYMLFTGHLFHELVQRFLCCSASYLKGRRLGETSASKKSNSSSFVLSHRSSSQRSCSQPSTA

Vasopressin V2 receptor [7] = biological target: T5, Vasopressin V2 receptor (Homo sapiens, UniProt P30518); experiment: Antagonist activity at human AVPR2 at 20 uM by PathHunter beta-arrestin assay relative to control
T5 sequence (P30518 whole entry): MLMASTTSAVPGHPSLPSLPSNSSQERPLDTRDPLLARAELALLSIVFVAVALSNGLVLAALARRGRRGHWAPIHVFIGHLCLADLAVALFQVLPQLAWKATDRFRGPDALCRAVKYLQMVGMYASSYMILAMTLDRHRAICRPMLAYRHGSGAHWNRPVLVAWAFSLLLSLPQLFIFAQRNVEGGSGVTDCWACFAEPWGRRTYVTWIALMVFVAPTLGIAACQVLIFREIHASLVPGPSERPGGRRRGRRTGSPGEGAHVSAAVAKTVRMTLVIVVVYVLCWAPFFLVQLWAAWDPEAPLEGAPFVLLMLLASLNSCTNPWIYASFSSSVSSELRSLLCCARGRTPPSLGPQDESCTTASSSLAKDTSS

[8] = biological target: D(2) dopamine receptor (Homo sapiens) (UniProt P14416); experiment: Antagonist activity at human DRD2L expressed in CHO-K1 cells at 20 uM by PathHunter beta-arrestin assay relative to control; type: cell-based
D(2) dopamine receptor (Homo sapiens), sequence (P14416 whole entry): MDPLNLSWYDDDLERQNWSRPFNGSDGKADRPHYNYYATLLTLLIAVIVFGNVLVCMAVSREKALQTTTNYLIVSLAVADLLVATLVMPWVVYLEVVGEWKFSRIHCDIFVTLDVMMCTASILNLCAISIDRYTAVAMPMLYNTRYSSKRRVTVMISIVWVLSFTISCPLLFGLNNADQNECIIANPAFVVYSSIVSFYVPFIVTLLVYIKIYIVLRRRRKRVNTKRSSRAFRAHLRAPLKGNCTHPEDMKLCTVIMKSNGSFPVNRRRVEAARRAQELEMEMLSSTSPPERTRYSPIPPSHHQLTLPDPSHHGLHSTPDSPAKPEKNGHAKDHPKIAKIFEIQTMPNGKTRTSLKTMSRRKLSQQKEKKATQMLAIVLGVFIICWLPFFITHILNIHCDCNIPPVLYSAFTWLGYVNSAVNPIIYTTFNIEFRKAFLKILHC

[9] = biological target: T6, Prolactin-releasing peptide receptor (Homo sapiens) (UniProt P49683); experiment: Agonist activity at human PRLHR expressed in CHO-K1 cells at 20 uM by PathHunter beta-arrestin assay relative to control; type: cell-based
T6 sequence (whole entry): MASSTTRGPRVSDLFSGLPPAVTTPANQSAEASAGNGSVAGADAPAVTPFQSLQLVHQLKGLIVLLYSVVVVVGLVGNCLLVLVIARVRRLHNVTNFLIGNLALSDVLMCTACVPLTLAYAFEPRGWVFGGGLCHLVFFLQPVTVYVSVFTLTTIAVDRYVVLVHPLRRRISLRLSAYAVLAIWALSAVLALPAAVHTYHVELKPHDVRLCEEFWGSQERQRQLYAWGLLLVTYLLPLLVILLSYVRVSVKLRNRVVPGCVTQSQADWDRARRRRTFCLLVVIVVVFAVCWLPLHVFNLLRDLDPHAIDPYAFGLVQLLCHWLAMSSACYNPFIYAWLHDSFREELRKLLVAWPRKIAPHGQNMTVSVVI

[10] = biological target: T4, Oxytocin receptor (Homo sapiens); experiment: Agonist activity at human OXTR expressed in CHO-K1 cells at 20 uM by PathHunter beta-arrestin assay relative to control; type: cell-based
[11] = biological target: T7, C-C chemokine receptor type 3 (Homo sapiens) (UniProt P51677); experiment: Antagonist activity at human CCR3 expressed in CHO-K1 cells at 20 uM by PathHunter beta-arrestin assay relative to control; type: cell-based
T7 sequence (whole entry): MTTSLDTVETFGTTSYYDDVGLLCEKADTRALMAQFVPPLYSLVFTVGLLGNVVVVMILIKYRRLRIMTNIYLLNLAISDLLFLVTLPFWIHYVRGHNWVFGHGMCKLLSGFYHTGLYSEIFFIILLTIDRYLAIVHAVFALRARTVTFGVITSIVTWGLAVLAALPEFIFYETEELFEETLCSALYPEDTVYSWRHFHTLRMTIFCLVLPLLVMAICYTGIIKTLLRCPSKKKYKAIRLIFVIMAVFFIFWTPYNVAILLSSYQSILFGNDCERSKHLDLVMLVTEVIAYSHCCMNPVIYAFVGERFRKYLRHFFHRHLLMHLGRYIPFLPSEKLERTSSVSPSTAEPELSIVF

[12] = biological target: T1, C-C chemokine receptor type 8; experiment: Agonist activity at human CCR8 expressed in CHO-K1 cells at 20 uM by PathHunter beta-arrestin assay relative to control; type: cell-based
Vasopressin V2 receptor [13] = biological target: T5, Vasopressin V2 receptor; experiment: Agonist activity at human AVPR2 at 20 uM by PathHunter beta-arrestin assay relative to control
[14] = biological target: T8, C-X-C chemokine receptor type 4 (Homo sapiens, UniProt P61073); experiment: Agonist activity at human CXCR4 expressed in mouse C2C12 cells at 20 uM by PathHunter beta-arrestin assay relative to control; type: cell-based
T8 sequence (P61073 whole entry): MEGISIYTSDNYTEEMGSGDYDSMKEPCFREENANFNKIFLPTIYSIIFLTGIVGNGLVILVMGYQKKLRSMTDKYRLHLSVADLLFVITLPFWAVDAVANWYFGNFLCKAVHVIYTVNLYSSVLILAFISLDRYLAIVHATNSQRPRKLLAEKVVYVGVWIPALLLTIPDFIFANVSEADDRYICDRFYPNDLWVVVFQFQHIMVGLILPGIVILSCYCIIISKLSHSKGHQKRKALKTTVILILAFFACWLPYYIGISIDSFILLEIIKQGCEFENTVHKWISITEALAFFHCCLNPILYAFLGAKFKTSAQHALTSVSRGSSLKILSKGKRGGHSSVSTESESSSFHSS

[15] = biological target: T3, CX3C chemokine receptor 1 (Homo sapiens); experiment: Antagonist activity at human CX3CR1 expressed in CHO-K1 cells at 20 uM by PathHunter beta-arrestin assay relative to control; type: cell-based; details: filed as antagonist
[16] = biological target: T6, Prolactin-releasing peptide receptor (Homo sapiens); experiment: Antagonist activity at human PRLHR expressed in CHO-K1 cells at 20 uM by PathHunter beta-arrestin assay relative to control; type: cell-based; details: filed as antagonist
[17] = biological target: T7, C-C chemokine receptor type 3 (Homo sapiens); experiment: Agonist activity at human CCR3 expressed in CHO-K1 cells at 20 uM by PathHunter beta-arrestin assay relative to control; type: cell-based
[18] = biological target: D(2) dopamine receptor (Homo sapiens) (UniProt P14416); experiment: Agonist activity at human DRD2L expressed in CHO-K1 cells at 20 uM by PathHunter beta-arrestin assay relative to control; type: cell-based
U2OS [19] = experiment: Antagonist activity at NPSR1B in human U2OS cells at 20 uM by PathHunter beta-arrestin assay relative to control; type: cell-based
Oxytocin receptor = biological target: T9, Oxytocin receptor (Homo sapiens, UniProt P30559); experiment: Antagonist activity at human OXTR expressed in CHO-K1 cells by PathHunter beta-arrestin assay; type: cell-based
T9 sequence (P30559 whole entry): T4 sequence (whole entry)

[20] = biological target: T8, C-X-C chemokine receptor type 4; experiment: Antagonist activity at human CXCR4 expressed in mouse C2C12 cells at 20 uM by PathHunter beta-arrestin assay relative to control; type: cell-based; details: filed as antagonist
[21] = Antagonist activity at NPSR1B in human U2OS cells by PathHunter beta-arrestin assay; type: cell-based
[22] = biological target: T10, Follicle-stimulating hormone receptor (Homo sapiens, UniProt P23945); experiment: Antagonist activity at human FSHR expressed in CHO-K1 cells by PathHunter beta-arrestin assay; type: cell-based
T10 sequence (P23945 whole entry): T2 sequence (whole entry)

[23] = biological target: T11, Prolactin-releasing peptide receptor (Homo sapiens, UniProt P49683); experiment: Antagonist activity at human PRLHR expressed in CHO-K1 cells by PathHunter beta-arrestin assay; type: cell-based
T11 sequence (P49683 whole entry): T6 sequence (whole entry)

SMILES	Activity (U2OS [1])	inhibition [2]	inhibition [3]	Activity [4]	Activity [5]	inhibition (Vasopressin V2 receptor [7]; filed as antagonist)	Activity [9]	Activity [10]	Activity [12]	Activity (Vasopressin V2 receptor [13])	Activity [14]	inhibition [15]	inhibition [16]	Activity [17]	Activity [18]	inhibition [6]	other results
COC(=O)[C@@H]1[C@H]2C[C@@H]3OCc4ccccc4-n4c3c(c3ccccc34)CCN(C#N)C[C@@H]2CC[C@@H]1O	inactive	15%	5%	inactive	inactive	16%	inactive	inactive	inactive	inactive	inactive	20%	5%	inactive	inactive		inhibition ([6]; filed as antagonist): 27%; inhibition ([8]; filed as antagonist): 3%; inhibition ([11]; filed as antagonist): 2%
COC(=O)[C@@H]1[C@H]2C[C@@H]([C@@]3(CCn4cc(CCCCO)nn4)C(=O)Nc4ccccc43)N(C#N)C[C@@H]2CC[C@@H]1O	inactive	5%	2%	inactive	inactive	1%	inactive	inactive	inactive	inactive	inactive	11%	9%	inactive	inactive	0%	
COC(=O)[C@@H]1[C@H]2C[C@@H]3N(CC[C@@]34C(=O)N(c3cncc(OC)n3)c3ccccc34)C[C@@H]2CC[C@@H]1O	inactive	9%	11%	inactive	inactive	9%	inactive	inactive	inactive	inactive	inactive	9%	2%	inactive	inactive		inhibition [8]: -8%; inhibition [11]: -7%
COC(=O)[C@@H]1[C@H]2C[C@H]3c4[nH]c5ccccc5c4CCN3C[C@@H]2CC[C@@H]1O	inactive		4%	inactive	inactive		inactive	inactive	inactive	inactive	inactive	22%		inactive	inactive		inhibition ([6]; filed as antagonist): 5%; inhibition (Vasopressin V2 receptor [7]): -1%; inhibition (U2OS [19]): -3%
Cc1ccccc1N1CCN(S(=O)(=O)CC23CCC(C[C@@H]2NC(=O)[C@@H](N)CCS(C)(=O)=O)C3(C)C)CC1 (some centres undefined)																	IC50 (Oxytocin receptor): 0.00462 µM
COC(=O)[C@@H]1[C@H]2C[C@H]3OCc4ccccc4-n4c3c(c3ccccc34)CCN(C#N)C[C@@H]2CC[C@@H]1O	inactive	10%	12%	inactive	inactive		inactive	inactive	inactive	inactive	inactive	9%		inactive	inactive	0%	inhibition [20]: 10%; inhibition (Vasopressin V2 receptor [7]): -1%; inhibition [8]: -2%; inhibition [11]: -2%; inhibition (U2OS [19]; filed as antagonist): 1%
COC(=O)[C@@H]1[C@H]2C[C@@H](OCc3ccc(Br)cc3)c3[nH]c4ccccc4c3CCN(C#N)C[C@@H]2CC[C@@H]1O	inactive	78%	94%	inactive	inactive	1%	inactive	inactive	inactive	inactive	inactive	53%	82%	inactive	inactive	-7%	IC50 [21]: 10.3 µM; IC50 [22]: 8.03 µM; inhibition [20]: 29%; inhibition ([8]; filed as antagonist): 10%; inhibition ([11]; filed as antagonist): 50%; IC50 [23]: 4.89 µM; inhibition (U2OS [19]; filed as antagonist): 87%

From ChEMBL document CHEMBL4725259 (Bioorg Med Chem, 2020)
